Results: patent US20260325533A1, “CDK INHIBITOR COMPOUNDS” (ALEKSIA THERAPEUTICS, INC., priority 2023, published 2026)
Where two headings read alike, the source gives them in different places.

How the values were obtained:
Type in all cases: biochemical
CDK6/CCND1 = CDK6/CCND1 (Homo sapiens, UniProt Q00534); assay: CDK6 homogeneous time-resolved fluorescence (HTRF) kinase assay; conditions: CDK6/CCND
Method in brief: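 Recombinant CDK6/CCND1 (1 nM final) was preincubated with compound for 20 min at 23 °C in HEPES buffer with MgCl2, EGTA, DTT and Tween 20. Kinase reaction then ran 60 min at 23 °C with 1 mM ATP and 50 nM ULight-4E-BP1 (Thr37/46) peptide, and was stopped with EDTA.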

CDK2/CCNE1 = CDK2/CCNE1 (Homo sapiens, UniProt P24941); assay: CDK2 homogeneous time-resolved fluorescence (HTRF) kinase assay; conditions: CDK2/CCNE
Method in brief: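 IC50 derived from 11-point, half-log dilutions (usually top 10 μM) of compound, 1% DMSO. Kinase (3 nM CDK2/CCNE1) was preincubated with compound 20 min, then phosphorylated 50 nM ULight-4E-BP1 peptide at 1 mM ATP for 60 min, 23 °C. Europium-antibody TR-FRET read after EDTA stop.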

CDK4/CCND3 = CDK4/CCND3 (Homo sapiens, UniProt P11802); assay: CDK4 homogeneous time-resolved fluorescence (HTRF) kinase assay; conditions: CDK4/CCND
Method in brief: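 IC50 values were derived from 11-point half-log dilutions, usually starting at 10 μM. Compound was first held for 20 min at 23 °C with 1.5 nM CDK4/CCND3. 1 mM ATP and 50 nM ULight-eIF4E-BP1 (Thr37/46) substrate were then added for 60 min, and the TR-FRET 665 nm signal was measured after EDTA stop and Eu-anti-phospho-4E-BP1 detection.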

CDK1/CCNB1 = CDK1/CCNB1 (Homo sapiens, UniProt P06493); assay: CDK1 homogeneous time-resolved fluorescence (HTRF) kinase assay; conditions: CDK1/CCNB
Method in brief: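 Kinase activity is measured as Lance signal (665 nm, or 665/615 nm ratio) from europium-labelled anti-phospho-Thr37/46 antibody binding ULight-4E-BP1 peptide. Reactions contain 0.5 nM enzyme, 1 mM ATP, 1% DMSO and run 60 min at 23 °C before EDTA quench.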

[1] = x = IC50 >250 nM, read-out: CDK6/CCND IC50 (>250 nM column)
[2] = x = IC50 25-250 nM, read-out: CDK2/CCNE IC50 (25-250 nM)
[3] = x = IC50 >250 nM, read-out: CDK4/CCND IC50 (>250 nM column)
[4] = x = IC50 >250 nM, read-out: CDK1/CCNB IC50 (>250 nM column)
[5] = 25-250 nM marked x, read-out: CDK6/CCND IC50 25-250 nM
[6] = <25 nM, read-out: CDK2/CCNE IC50 <25 nM
[7] = 25-250 nM marked x, read-out: CDK4/CCND IC50 25-250 nM
[8] = >250 nM marked x, read-out: CDK1/CCNB IC50 >250 nM
[9] = >250 nM, 1 mM ATP, read-out: CDK6/CCND IC50, >250 nM
[10] = 25-250 nM, read-out: CDK2/CCNE IC50, 25-250 nM
[11] = >250 nM, read-out: CDK4/CCND IC50, >250 nM
[12] = >250 nM, read-out: CDK1/CCNB IC50 >250 nM

Chain of CDK6/CCND1 (Q00534 whole entry): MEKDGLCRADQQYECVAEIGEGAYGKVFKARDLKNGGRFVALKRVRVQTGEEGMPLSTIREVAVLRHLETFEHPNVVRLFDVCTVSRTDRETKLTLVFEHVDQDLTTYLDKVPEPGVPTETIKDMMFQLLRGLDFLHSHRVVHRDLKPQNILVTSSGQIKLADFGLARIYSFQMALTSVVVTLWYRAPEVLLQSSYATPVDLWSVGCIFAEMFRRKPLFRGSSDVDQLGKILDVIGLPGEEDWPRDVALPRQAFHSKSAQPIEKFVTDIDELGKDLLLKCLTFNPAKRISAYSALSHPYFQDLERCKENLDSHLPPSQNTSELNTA
Chain of CDK6/CCND1 (P24385 whole entry partner): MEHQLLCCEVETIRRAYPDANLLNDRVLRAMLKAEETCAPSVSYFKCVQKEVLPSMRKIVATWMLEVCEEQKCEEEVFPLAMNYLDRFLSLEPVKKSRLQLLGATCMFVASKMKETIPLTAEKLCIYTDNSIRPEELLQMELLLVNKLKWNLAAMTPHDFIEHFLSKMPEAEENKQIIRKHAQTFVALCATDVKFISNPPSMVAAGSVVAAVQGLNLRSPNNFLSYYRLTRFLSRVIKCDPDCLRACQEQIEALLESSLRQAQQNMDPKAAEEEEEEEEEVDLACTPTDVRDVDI
Chain of CDK1/CCNB1 (P06493 whole entry): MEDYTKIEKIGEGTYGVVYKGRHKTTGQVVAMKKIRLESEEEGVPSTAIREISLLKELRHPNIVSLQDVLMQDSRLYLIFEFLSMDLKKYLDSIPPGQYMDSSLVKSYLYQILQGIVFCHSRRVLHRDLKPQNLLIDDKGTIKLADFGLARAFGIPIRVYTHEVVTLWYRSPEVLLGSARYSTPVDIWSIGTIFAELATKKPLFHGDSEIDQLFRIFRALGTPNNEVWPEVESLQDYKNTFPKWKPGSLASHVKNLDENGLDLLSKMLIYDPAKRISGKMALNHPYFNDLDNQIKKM
Chain of CDK1/CCNB1 (P14635 whole entry partner): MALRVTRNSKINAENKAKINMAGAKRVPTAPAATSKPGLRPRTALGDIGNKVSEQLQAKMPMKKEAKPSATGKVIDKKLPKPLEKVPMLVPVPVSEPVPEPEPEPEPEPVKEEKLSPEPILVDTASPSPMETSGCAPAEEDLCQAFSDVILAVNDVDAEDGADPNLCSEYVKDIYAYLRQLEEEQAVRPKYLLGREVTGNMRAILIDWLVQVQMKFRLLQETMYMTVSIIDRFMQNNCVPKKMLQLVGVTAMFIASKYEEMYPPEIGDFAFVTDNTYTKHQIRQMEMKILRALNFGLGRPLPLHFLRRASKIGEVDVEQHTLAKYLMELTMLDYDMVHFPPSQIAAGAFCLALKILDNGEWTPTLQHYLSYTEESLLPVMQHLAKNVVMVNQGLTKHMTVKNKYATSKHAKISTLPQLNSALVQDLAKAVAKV
Chain of CDK4/CCND3 (P11802 whole entry): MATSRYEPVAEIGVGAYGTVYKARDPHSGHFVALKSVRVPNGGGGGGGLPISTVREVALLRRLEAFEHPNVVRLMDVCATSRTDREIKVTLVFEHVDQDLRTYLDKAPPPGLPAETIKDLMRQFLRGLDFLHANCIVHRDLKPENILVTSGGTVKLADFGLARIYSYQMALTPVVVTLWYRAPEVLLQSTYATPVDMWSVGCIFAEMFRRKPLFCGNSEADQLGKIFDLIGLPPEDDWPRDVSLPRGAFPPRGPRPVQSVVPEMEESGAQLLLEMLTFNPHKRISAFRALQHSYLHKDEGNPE
Chain of CDK4/CCND3 (P30281 whole entry partner): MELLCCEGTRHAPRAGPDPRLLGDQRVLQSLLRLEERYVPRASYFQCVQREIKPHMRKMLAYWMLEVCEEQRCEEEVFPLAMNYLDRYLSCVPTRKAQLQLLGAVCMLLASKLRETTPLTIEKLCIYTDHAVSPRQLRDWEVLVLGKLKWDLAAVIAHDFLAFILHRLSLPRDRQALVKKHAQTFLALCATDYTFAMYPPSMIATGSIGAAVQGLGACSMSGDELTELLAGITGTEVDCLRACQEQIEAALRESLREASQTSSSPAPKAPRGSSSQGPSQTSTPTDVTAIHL

SMILES: CN1Cc2cc(-c3nccc4cnc(Nc5ccc(S(C)(=O)=O)cc5)cc34)ccc2C1=O [Ex 624, 2-methyl-5-(7-((4-(methylsulfonyl)phenyl)amino)-2,6-naphthyridin-1-yl)isoindolin-1-one]
- IC50 (CDK6/CCND1; [1]): > 250 nM
- IC50 (CDK2/CCNE1; [2]): 25 to 250 nM
- IC50 (CDK4/CCND3; [3]): > 250 nM
- IC50 (CDK1/CCNB1; [4]): > 250 nM

SMILES: CS(=O)(=O)N1CCC(Nc2cc3c(C4=CCOCC4)nccc3cn2)CC1 [Ex 87, 5-(3,6-dihydro-2H-pyran-4-yl)-N-(1-(methylsulfonyl)piperidin-4-yl)-2,6-naphthyridin-3-amine]
- IC50 (CDK6/CCND1; [5]): 25 to 250 nM
- IC50 (CDK2/CCNE1; [6]): < 25 nM
- IC50 (CDK4/CCND3; [7]): 25 to 250 nM
- IC50 (CDK1/CCNB1; [8]): > 250 nM

SMILES: COC(=O)c1ccc(C#Cc2nccc3cnc(Nc4ccc(S(C)(=O)=O)cc4)cc23)cn1 [Ex 521, methyl 5-((7-((4-(methylsulfonyl)phenyl)amino)-2,6-naphthyridin-1-yl)ethynyl)picolinate]
- IC50 (CDK6/CCND1; [1]): > 250 nM
- IC50 (CDK2/CCNE1; [2]): 25 to 250 nM
- IC50 (CDK4/CCND3; [3]): > 250 nM
- IC50 (CDK1/CCNB1; [4]): > 250 nM

SMILES: CS(=O)(=O)N1CCC(Nc2cc3c(-c4ccc(O)cc4)nccc3cn2)CC1 [Ex 68, 4-(7-((1-(methylsulfonyl)piperidin-4-yl)amino)-2,6-naphthyridin-1-yl)phenol]
- IC50 (CDK6/CCND1; <25 nM, read-out: CDK6/CCND IC50 <25 nM): < 25 nM
- IC50 (CDK2/CCNE1; [6]): < 25 nM
- IC50 (CDK4/CCND3; [7]): 25 to 250 nM
- IC50 (CDK1/CCNB1; [8]): > 250 nM

SMILES: CS(=O)(=O)c1ccc(Nc2cc3c(C#Cc4cc(F)ncc4F)nccc3cn2)cc1 [Ex 872, 5-((2,5-difluoropyridin-4-yl)ethynyl)-N-(4-(methylsulfonyl)phenyl)-2,6-naphthyridin-3-amine]
- IC50 (CDK6/CCND1; [9]): > 250 nM
- IC50 (CDK2/CCNE1; [10]): 25 to 250 nM
- IC50 (CDK4/CCND3; [11]): > 250 nM
- IC50 (CDK1/CCNB1; [12]): > 250 nM

SMILES: CS(=O)(=O)c1ccc(Nc2cc3c(C4=CC(O)CCC4)nccc3cn2)cc1 (racemic) [Ex 240, 3-(7-((4-(methylsulfonyl)phenyl)amino)-2,6-naphthyridin-1-yl)cyclohex-2-en-1-ol]
- IC50 (CDK6/CCND1; [5]): 25 to 250 nM
- IC50 (CDK2/CCNE1; 25-250 nM marked x, read-out: CDK2/CCNE IC50 25-250 nM): 25 to 250 nM
- IC50 (CDK4/CCND3; >250 nM marked x, read-out: CDK4/CCND IC50 >250 nM): > 250 nM
- IC50 (CDK1/CCNB1; [8]): > 250 nM

SMILES: CS(=O)(=O)N1CCC(Nc2cc3c(-c4ccc(C#N)cc4)nccc3cn2)CC1 [Ex 74, 4-(7-((1-(methylsulfonyl)piperidin-4-yl)amino)-2,6-naphthyridin-1-yl)benzonitrile]
- IC50 (CDK6/CCND1; [5]): 25 to 250 nM
- IC50 (CDK2/CCNE1; [6]): < 25 nM
- IC50 (CDK4/CCND3; [7]): 25 to 250 nM
- IC50 (CDK1/CCNB1; [8]): > 250 nM

SMILES: CC1(C)C(=O)Nc2cc(C#Cc3nccc4cnc(Nc5ccc(S(=O)(=O)NC6CCOCC6)cc5)cc34)ccc21 [Ex 443, 4-((5-((3,3-dimethyl-2-oxoindolin-6-yl)ethynyl)-2,6-naphthyridin-3-yl)amino)-N-(tetrahydro-2H-pyran-4-yl)benzenesulfonamide]
- IC50 (CDK6/CCND1; [1]): > 250 nM
- IC50 (CDK2/CCNE1; x = IC50 <25 nM, read-out: CDK2/CCNE IC50 (<25 nM)): < 25 nM
- IC50 (CDK4/CCND3; x = IC50 25-250 nM, read-out: CDK4/CCND IC50 (25-250 nM)): 25 to 250 nM
- IC50 (CDK1/CCNB1; x = IC50 25-250 nM, read-out: CDK1/CCNB IC50 (25-250 nM)): 25 to 250 nM

SMILES: COc1nccc(C#Cc2nccc3cnc(Nc4ccc(S(C)(=O)=O)cc4)cc23)c1C [Ex 909, 5-((2-methoxy-3-methylpyridin-4-yl)ethynyl)-N-(4-(methylsulfonyl)phenyl)-2,6-naphthyridin-3-amine]
- IC50 (CDK6/CCND1; [9]): > 250 nM
- IC50 (CDK2/CCNE1; [10]): 25 to 250 nM
- IC50 (CDK4/CCND3; [11]): > 250 nM
- IC50 (CDK1/CCNB1; [12]): > 250 nM

SMILES: CC(C)S(=N)(=O)c1ccc(Nc2cc3c(C#Cc4ccc5c(c4)NC(=O)C5(C)O)nccc3cn2)cc1 (single isomer, unassigned) [Example 279, 3-hydroxy-3-methyl-6-((7-((4-(propan-2-ylsulfonimidoyl)phenyl)amino)-2,6-naphthyridin-1-yl)ethynyl)indolin-2-one]
- IC50 (CDK6/CCND1; [5]): 25 to 250 nM
- IC50 (CDK2/CCNE1; [6]): < 25 nM
- IC50 (CDK4/CCND3; [7]): 25 to 250 nM
- IC50 (CDK1/CCNB1; 25-250 nM marked x, read-out: CDK1/CCNB IC50 25-250 nM): 25 to 250 nM

SMILES: Cc1cccc(NS(=O)(=O)c2ccc(Nc3cc4c(-c5ccc6c(cnn6CC(C)(C)O)c5C)nccc4cn3)cc2)c1 [Ex 807, 4-((5-(1-(2-hydroxy-2-methylpropyl)-4-methyl-1H-indazol-5-yl)-2,6-naphthyridin-3-yl)amino)-N-(m-tolyl)benzenesulfonamide]
- IC50 (CDK6/CCND1; [9]): > 250 nM
- IC50 (CDK2/CCNE1; <25 nM, read-out: CDK2/CCNE IC50, <25 nM): < 25 nM
- IC50 (CDK4/CCND3; [11]): > 250 nM
- IC50 (CDK1/CCNB1; [12]): > 250 nM
